The test system of data set [1] is human HepG2 hepatoblastoma cells. The data set can be described thus: Growth inhibition, crystal violet staining, HepG2. The note with it: 48 h incubation, mean ± SD, read-out: Anti-proliferative activity IC50, HepG2. The class given is cell-based. The procedure:
(§1) The well-differentiated p53 wild-type human hepatoblastoma cell line HepG2 (ATCC# 8065) and the highly differentiated p53 mutated human hepatocellular carcinoma cell line Huh-7 (JCRB#0403) were grown in RPMI 1640 medium supplemented with 10% fetal bovine serum and 100 U/mL penicillin and […] streptomycin. Murine AML-12 hepatocytes were obtained from ATCC (CRL-2254) and grown in DMEM/F-12 Glutamax medium supplemented with 10% fetal bovine serum, 10 µg/mL insulin, 5.5 µg/mL transferrin, 5 ng/mL selenium (Gibco ITS-G 100X) and 40 ng/mL dexamethasone (Sigma-Aldrich). All cell lines were incubated in a 37 °C, 5% CO2, 95% humidified atmosphere.
(§2) Treatment-induced changes in cell number were evaluated by crystal violet staining, as previously described. Briefly, 1.500 cells per well were seeded in 96-well plates for 24 h at 37 °C, 5% CO2. For the experiments with HepG2 and Huh-7 cell lines, cells were incubated with rising concentrations (0–20 µM) of the new compounds (1a–1o) for 48 h. AML12-cells were treated with compounds 1a, 1b, 1c, 1e, 1i and 1j for 48 h and at concentrations ranging from 0.5–64 µM. Thereafter, the cells were fixed with 1% glutaraldehyde and stained with 0.1% crystal violet (Sigma-Aldrich). The unbound dye was removed by rinsing with water. Bound crystal violet was solubilized with 0.2% Triton X-100 (Sigma-Aldrich). Light extinction of crystal violet, which increases linearly with cell number, was analyzed at 570 nm using an ELISA-Reader (Dynex Technologies, Denkendorf, Germany). All experiments were carried out in duplicate or triplicate.

Data set [2] concerns human Huh-7 HCC cells. The data set can be described thus: Growth inhibition, crystal violet staining, Huh-7. The class given is cell-based. As to conditions: 48 h incubation, mean ± SD, read-out: Anti-proliferative activity IC50, Huh-7. The procedure: as §1, §2
Data set [3] has as its system HepG2-tumors grown on membranes of fertilized chicken eggs. The data set can be described thus: Chorioallantoic membrane (CAM) assay. The note with it: topical treatment 72 h; 1b 0–10 µM, 1c 0–2.5 µM, sorafenib 10 µM. The class given is in vivo. The procedure: The chorioallantoic membrane (CAM) assay was performed as described previously. Fertilized chicken eggs (Gallus gallus) were obtained from commercial sources (Valo GmbH, Germany) and incubated in a humid environment at 38 °C. On day 3 of the egg development, a window was cut in the eggshell to access the developing vascular network of the CAM. At day 10 of chicken embryo development, a sterile silicon ring (10 mm diameter) was placed on the CAM and tumor plugs of 3 × 10^6 HepG2 cells in 20 µL Matrigel (BD Biosciences) with reduced growth factors were placed inside the silicon ring. After 24 h at 38 °C in an incubator, the tumor plaques attached and connected to the (tumor-)feeding CAM microvasculature. Then, the tumor plaques were topically treated with either PBS (negative control) or PBS containing rising concentrations of 1b (0–10 µM), 1c (0–2.5 µM) or sorafenib (10 μM) for 3 days. Tumor growth and viability of the embryo were controlled daily by stereo microscopy. After 72 h of treatment, the tumors were recovered for weighing and pictures were taken using a stereomicroscope equipped with a Kappa digital camera system (Kappa Optronics GmbH, Germany). For data analysis, the tumor weight of 1c-treated and untreated control tumors was determined and the mean weight of treated vs. untreated tumors of 11 eggs for each condition was calculated. Statistical significance evaluated by one-way ANOVA tests.

In data set [4] the test system is HepG2 cells. Briefly: LDH release assay (unspecific cytotoxicity). Type of data set: cell-based, human. The note with it: HepG2, 0.5 and 10 µM, 12 or 24 h. The procedure:
Unspecific cytotoxicity induced by treatment with 0.5 µM and 10 µM of 1a, 1b, 1c and sorafenib (LC Laboratories, Woburn, MA, USA) was determined by measuring the release of lactate dehydrogenase (LDH) from HepG2 cells into the supernatant after 12 and 24 h (Cytotoxicity Detection KitPLUS LDH, Roche Diagnostics GmbH, Mannheim, Germany). The supernatant of treated samples was collected, and adherent non-treated cells were lysed with 2% Triton X-100 for 10 min to determine the maximum LDH release. All samples were mixed with catalyst and dye solution for 30 min, resulting in the formation of formazan dye proportional to LDH enzyme activity. The absorbance was measured at 490/630 nm using an ELISA reader (Dynex Technologies, Denkendorf, Germany) and cytotoxicity was determined by subtracting the percentage of LDH release under control conditions of those from treated samples. Experiments were performed in duplicate and data are given as mean percentage changes ± SD as compared to controls of n = 3 experiments.
A general note: LDH in the medium is a marker of cell lysis.

Data set [5] deals with caspase-3 activity of HepG2 cells. The data set can be described thus: Apoptosis-specific caspase-3 activity. The class given is cell-based, human. As to conditions: HepG2, 1 and 10 µM, 24 h. The procedure:
Changes in caspase-3 activity were measured by the cleavage of the fluorogenic substrate AC-DEVD-AMC (EMD Millipore, Billerica, MA, USA), as described previously. After 24 h of incubation with 1a, 1b, 1c, 1e and sorafenib (1 and 10 µM) the cells were harvested and lysed with lysis buffer. Subsequently, the lysates were incubated for 1 h at 37 °C with a substrate solution containing 20 μg/mL AC-DEVD-AMC, 20 mM HEPES, 10% glycerol and 2 mM DTT at pH 7.5. Substrate cleavage was measured fluorometrically using a Varioskan Flash Fluorometer (Thermo Fisher Scientific, Waltham, MA, USA; filter sets: ex 360/40 nm, em 460/10 nm). n = 3 independent measurements were performed in triplicate, and data are given as the mean percentage increase ± SD above control, which was set 100%.

The subject of data set [6] is Pim-1. As to conditions: cited from earlier work.

The structures appear in SMILES notation.

As to `CNC(=O)c1cc(Oc2ccc(NC(=O)Nc3ccc(Cl)c(C(F)(F)F)c3)cc2)ccn1` [Sorafenib, sorafenib, reference compound], the results for the IC50 in data set [1] and in data set [2] were 2.73 ± 0.76 µM and 2.5 ± 0.14 µM, respectively. The “tumor reduction vs PBS-treated controls (in words)” value in data set [3] is “pronounced tumor reductions”. Moreover, the “LDH release / unspecific cytotoxicity (in words)” value in data set [4] was “do not exert considerable unspecific cytotoxicity”. Besides, in data set [5], the “caspase-3 activity (in words)” value is “dose-dependently induced caspase-3 activity”. In data set [6], the “Pim-1 inhibitory activity (in words)” value is on record as “no Pim-1 inhibitory activity”.

The IC50 is the midpoint of a concentration-inhibition curve.

(Values after publication PMC7956560, “New 3-Aryl-2-(2-thienyl)acrylonitriles with High Activity Against Hepatoma Cells” (International Journal of Molecular Sciences, 2021).)
